Test results from patent publication US20240383869A1, “ARYLACETYL INHIBITORS OF TG2 AND USES THEREOF” (UNIVERSITY OF OTTAWA, priority 2021, published 2024).

Tests used:
hTG6 = molecular target: T1, hTG6 (Homo sapiens, UniProt O95932); assay: Colorimetric transamidase activity assay, isozyme selectivity; assay type: biochemical; conditions: normalized [I]/α
T1 sequence (O95932 1-706): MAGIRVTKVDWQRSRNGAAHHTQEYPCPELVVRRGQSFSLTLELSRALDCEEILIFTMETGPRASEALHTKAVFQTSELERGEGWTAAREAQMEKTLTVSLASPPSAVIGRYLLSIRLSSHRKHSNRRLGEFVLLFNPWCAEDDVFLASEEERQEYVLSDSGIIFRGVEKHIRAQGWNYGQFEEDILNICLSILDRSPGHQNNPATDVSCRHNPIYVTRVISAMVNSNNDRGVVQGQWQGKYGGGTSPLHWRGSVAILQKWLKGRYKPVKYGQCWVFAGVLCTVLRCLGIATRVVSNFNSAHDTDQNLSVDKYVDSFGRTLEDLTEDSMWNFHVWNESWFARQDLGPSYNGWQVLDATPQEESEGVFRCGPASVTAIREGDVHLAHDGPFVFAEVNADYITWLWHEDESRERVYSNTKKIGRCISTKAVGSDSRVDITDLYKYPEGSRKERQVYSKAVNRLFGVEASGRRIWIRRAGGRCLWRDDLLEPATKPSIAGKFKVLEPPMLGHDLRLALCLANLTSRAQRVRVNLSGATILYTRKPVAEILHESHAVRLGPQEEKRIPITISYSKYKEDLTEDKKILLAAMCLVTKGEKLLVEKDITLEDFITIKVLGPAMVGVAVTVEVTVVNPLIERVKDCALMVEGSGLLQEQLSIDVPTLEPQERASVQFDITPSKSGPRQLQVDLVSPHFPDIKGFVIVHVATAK
Method: Colorimetric transamidase activity assay. The activities of hTG1, hTG2 and hTG6 were measured via a colorimetric assay using the chromogenic substrate Cbz-Glu(γ-p-nitrophenyl ester)Gly (AL5), as described (Leblanc, A. et al., “Kinetic studies of guinea pig liver transglutaminase reveal a general-base-catalyzed deacylation mechanism.” Biochemistry 2001, 40 (28), 8335-8342). Assays were conducted at 25° C. in 50 mM MOPS buffer (pH 6.95) containing 7.5 mM CaCl2. […] Stock solutions of the inhibitors were made in water ranging in concentration from 100-500 μM. The reaction was initiated with the addition of enzyme, 0.10 μM hTG1, 0.25 μM hTG2 (4.6 mU/mL) or 0.32 μM hTG6. Formation of hydrolysis product, p-nitrophenolate (pNP), was monitored at 405 nm in a polystyrene 96-well microplate using a BioTek Synergy 4 plate reader. The observed first-order rate constants of inactivation (kobs) were determined via non-linear regression fit to a mono-exponential model (Eqn 1) of absorbance versus time curves. These rate constants (kobs) were in turn fit to a saturation kinetics model (Eqn 2), by non-linear regression, providing the kinetic parameters kinact and KI, as previously described by Stone and Hofsteenge (Stone, S. R. and Hofsteenge, J., “Specificity of activated human protein C.” Biochem. J. 1985, 230 (2), 497-502). […] Experiments were completed in triplicate at minimum.

MDCK − MDR1 = assay: MDCK-MDR1 permeability; assay type: in vitro ADME; conditions: for MDCK − MDR1 Papp (A→B): apical to basolateral; for MDCK − MDR1 Papp (B→A): basolateral to apical
Protein binding = assay type: in vitro ADME
Plasma stability = assay type: in vitro ADME
[1] = Metabolic stability in human hepatocyte model; assay type: in vitro ADME; conditions: hepatocytes; for hepatocyte CLint: calculated intrinsic clearance; for half-life: read-out: Hepatocyte t½
Method: The metabolic stabilities of inhibitors 72 and 74 were also evaluated in a human hepatocyte model. The half-lives and calculated intrinsic clearance shown in Table 6 are indicative of moderate stability.

[2] = PAMPA passive diffusion across a lipid membrane; assay type: in vitro ADME
Method: Passive diffusion across a lipid membrane was measured by PAMPA for both inhibitors 72 and 74. The values shown in Table 6 indicate both compounds were at least moderately permeant.

SCC-13 cells = assay: ECS cell invasion through Matrigel (Transwell); assay type: cell-based; conditions: 0-100 μM inhibitor, 18 h, read-out: EC50 for inhibition of ECS invasion
Method: One well-known property of tumour-initiating cells associated with cancer metastasis is the enhanced ability to invade Matrigel (collagen). For example, it has been shown that epidermal cancer stem (ECS) cells invade Matrigel more efficiently than non-stem cancer cells, and that these properties are associated with enhanced tumour formation (Adhikary, G. et al., PLoS ONE 2013, 8, e84324. https://doi.org/10.1371/journal.pone.0084324). We have shown previously that ˜20 μM of NC9 and 3.9 μM of VA4 can reduce ECS cell invasion through Matrigel by ˜50% relative to vehicle-treated cells (Akbar, A. et al., J. Med. Chem. 2017, 60, 7910-7927. https://doi.org/10.1021/acs.jmedchem.7b01070; Fisher, M. L. et al., Oncotarget 2015, 6, 20525-20539. https://doi.org/10.18632/oncotarget.3890).
Materials and Methods for cell invasion data. To measure cell invasion, Matrigel (Corning, catalogue no. 354234) was diluted to 250 μg/mL and 120 μL was added to the upper chambers of a Transwell plate (Corning, no. 353097, 1-cm diameter, 8-μm pore size) and allowed to solidify. SCC-13 cells were suspended in spheroid medium (Fisher, M. L. et al., Cancer Res. 2016, 76, 7265-7275. https://doi.org/10.1158/0008-5472.can-16-2032; Adhikary, G. et al., Carcinogenesis 2015, 36, 800-810. https://doi.org/10.1093/carcin/bgv064) containing 1% foetal calf serum (FCS), and 20,000 cells were plated into each upper chamber atop the Matrigel. The bottom chamber contained spheroid medium supplemented with 10% FCS and 0-100 μM of inhibitor. After incubation for 18 h in a 37° C. incubator, cells in the top chamber were removed with a swab and cells on the lower surface of the membrane were fixed with 4% paraformaldehyde and the nuclei were stained with 4′,6-diamidino-2-phenylindole. Cell number was counted in multiple fields (n=4) using a fluorescence microscope, normalized with respect to the number counted in the presence of vehicle only, and expressed as mean±standard deviation.

For `C=CC(=O)NCCCC[C@H](NC(=O)OCc1ccccc1)C(=O)N1CCN(C(=O)c2cccc3ccccc23)CC1` [AA9, reference compound], the “inhibition of TG6” value (hTG6) was “none of these inhibitors showed any detectable inhibition”.

With `C=CC(=O)NCCCC[C@H](NC(=O)Cc1ccccc1F)C(=O)N1CCN(C(=O)c2cccc3ccccc23)CC1` [Inhibitor 72, (S)-N-(6-(4-(1-naphthoyl)piperazin-1-yl)-5-(2-(2-fluorophenyl)acetamido)-6-oxohexyl)acrylamide] the “MDCK − MDR1 Papp (A→B)” value (MDCK − MDR1) was 0.29 10^−6 cm/s, the “MDCK − MDR1 Papp (B→A)” value (MDCK − MDR1) was 18.2 10^−6 cm/s and the “Protein Binding” value (Protein binding) was 84%. For the same compound, the “Protein Binding Recovery” value (Protein binding) was 86%, the “inhibition of TG6” value (hTG6) was “none of these inhibitors showed any detectable inhibition” and the “Plasma t½” value (Plasma stability) was 17.92 h. For the same compound, the hepatocyte CLint [1] was 2.37 µL/min/1e6 cells, the half-life [1] was 9.73 h and the “PAMPA −Log [Pe (cm/s)]” value [2] was 5.44. It also gave an EC50 (SCC-13 cells) of 77 µM.

For `C=CC(=O)NCCCC[C@H](NC(=O)Cc1ccccc1C)C(=O)N1CCN(C(=O)c2cccc3ccccc23)CC1` [Inhibitor 74, (S)-N-(6-(4-(1-naphthoyl)piperazin-1-yl)-5-(2-(2-methylphenyl)acetamido)-6-oxohexyl)acrylamide], the “MDCK − MDR1 Efflux Ratio” value (MDCK − MDR1) was 51.6, the “MDCK − MDR1 Papp (A→B)” value (MDCK − MDR1) was 0.32 10^−6 cm/s and the “MDCK − MDR1 Papp (B→A)” value (MDCK − MDR1) was 16.5 10^−6 cm/s. For the same compound, the “Protein Binding” value (Protein binding) was 85%, the “Protein Binding Recovery” value (Protein binding) was 93% and the “inhibition of TG6” value (hTG6) was “none of these inhibitors showed any detectable inhibition”. For the same compound, the “Plasma t½” value (Plasma stability) was 9.47 h, the hepatocyte CLint [1] was 5.58 µL/min/1e6 cells and the half-life [1] was 4.18 h. For the same compound, the “PAMPA −Log [Pe (cm/s)]” value [2] was 5.03 and the EC50 (SCC-13 cells) was 119 ± 5 µM.
